This passage reports T/C results from PubChem BioAssay AID192 (DTP/NCI, 2004).

This assay relates to BDF1 mice, B16 melanoma ip, median survival T/C. As to the kind of experiment: NCI In Vivo Anticancer Drug Screen. Data for tumor model B16 Melanoma (intraperitoneal) in B6D2F1 (BDF1) mice. The settings on record: endpoint: median survival time, higher = longer survival. The gist of the method: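 In this screen, activity was judged from survival or tumor size in treated versus vehicle-treated tumor-bearing mice, reported as T/C.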

The mark [1] stands for this setting: dose: 25.0 mg/kg/injection, schedule: Q04DX003 (ip), vehicle: Klucel (hydroxypropylcellulose) (HPC).
The mark [2] stands for this setting: dose: 50.0 mg/kg/injection, schedule: Q04DX003 (ip), vehicle: Klucel (hydroxypropylcellulose) (HPC).
The mark [3] stands for this setting: dose: 6.25 mg/kg/injection, schedule: Q01DX009 (ip), vehicle: saline.
The mark [4] stands for this setting: dose: 12.5 mg/kg/injection, schedule: Q01DX009 (ip), vehicle: saline.
The mark [5] stands for this setting: dose: 25.0 mg/kg/injection, schedule: Q01DX009 (ip), vehicle: saline.
The mark [6] stands for this setting: dose: 50.0 mg/kg/injection, schedule: Q01DX009 (ip), vehicle: saline.
[7] abbreviates: dose: 1.56 mg/kg/injection, schedule: Q01DX009 (ip), vehicle: saline with Tween-80.
Setting [8] is: dose: 6.25 mg/kg/injection, schedule: Q01DX009 (ip), vehicle: saline with Tween-80.
The mark [9] stands for this setting: dose: 50.0 mg/kg/injection, schedule: Q01DX009 (ip), vehicle: Klucel (hydroxypropylcellulose) (HPC).
Setting [10] is: dose: 100.0 mg/kg/injection, schedule: Q01DX009 (ip), vehicle: Klucel (hydroxypropylcellulose) (HPC).
The mark [11] stands for this setting: dose: 200.0 mg/kg/injection, schedule: Q01DX009 (ip), vehicle: Klucel (hydroxypropylcellulose) (HPC).
Where [12] appears, read: dose: 50.0 mg/kg/injection, schedule: Q01DX009 (ip), vehicle: saline with Tween-80.
Where [13] appears, read: dose: 100.0 mg/kg/injection, schedule: Q01DX009 (ip), vehicle: saline with Tween-80.
[14] abbreviates: dose: 25.0 mg/kg/injection, schedule: Q01DX009 (ip), vehicle: Klucel (hydroxypropylcellulose) (HPC).

Values joined by “and” are separate entries in the source; they are usually repeats but may differ in a detail not shown here. Equal entries are not always repeated. Inconclusive results and toxic doses are left out.

On to `CC1(C)N=C(N)N=C(N)N1c1ccc(Cl)c(Cl)c1`, for which the T/C was 117 % of control (dose: 6.25 mg/kg/injection, schedule: Q01DX009 (ip), vehicle: Klucel (hydroxypropylcellulose) (HPC)); 102 % of control (dose: 6.25 mg/kg/injection, schedule: Q04DX003 (ip), vehicle: Klucel (hydroxypropylcellulose) (HPC)); 103 % of control (dose: 12.5 mg/kg/injection, schedule: Q04DX003 (ip), vehicle: Klucel (hydroxypropylcellulose) (HPC)); 114 % of control under setting [1]; 116 % of control under setting [2].
Take `CCN(CC)CCCC(C)NC/C=C/CNC(C)CCCN(CC)CC` (stereo unspecified): the T/C by setting is: under setting [3], 105 % of control; under setting [4], 103 % of control; under setting [5], 102 % of control.
As to `C[n+]1ccc(Nc2ccc(NC(=O)c3ccc(Nc4cc[n+](C)c5ccc(N)cc45)cc3)cc2)cc1`, the T/C by setting is: (dose: 0.5 mg/kg/injection, schedule: Q01DX009 (ip), vehicle: Klucel (hydroxypropylcellulose) (HPC)) 105 % of control; (dose: 1.0 mg/kg/injection, schedule: Q01DX009 (ip), vehicle: Klucel (hydroxypropylcellulose) (HPC)) 98 % of control and 101 % of control; (dose: 1.0 mg/kg/injection, schedule: Q02DX009 (ip), vehicle: Klucel (hydroxypropylcellulose) (HPC)) 100 % of control and 116 % of control; (dose: 2.0 mg/kg/injection, schedule: Q01DX009 (ip), vehicle: Klucel (hydroxypropylcellulose) (HPC)) 105 % of control and 108 % of control and 111 % of control; (dose: 2.0 mg/kg/injection, schedule: Q02DX009 (ip), vehicle: Klucel (hydroxypropylcellulose) (HPC)) 106 % of control and 112 % of control; (dose: 4.0 mg/kg/injection, schedule: Q01DX009 (ip), vehicle: Klucel (hydroxypropylcellulose) (HPC)) 103 % of control and 111 % of control and 120 % of control. The T/C (dose: 4.0 mg/kg/injection, schedule: Q02DX009 (ip), vehicle: Klucel (hydroxypropylcellulose) (HPC)) is 109 % of control and 112 % of control; the T/C (dose: 8.0 mg/kg/injection, schedule: Q01DX009 (ip), vehicle: Klucel (hydroxypropylcellulose) (HPC)) is 109 % of control and 123 % of control and 124 % of control; the T/C (dose: 8.0 mg/kg/injection, schedule: Q02DX009 (ip), vehicle: Klucel (hydroxypropylcellulose) (HPC)) was 107 % of control and 118 % of control; the T/C (dose: 16.0 mg/kg/injection, schedule: Q02DX009 (ip), vehicle: Klucel (hydroxypropylcellulose) (HPC)) was 98 % of control and 110 % of control.
Turning to `O=C1C=CN(C2OC(CO)C(O)C2O)C(=O)C1` (stereo unspecified), the T/C reads like this: under setting [4], 104 % of control; under setting [5], 104 % of control; (dose: 50.0 mg/kg/injection, schedule: Q01DX009 (ip), vehicle: saline sonified) 100 % of control; under setting [6], 119 % of control; (dose: 100.0 mg/kg/injection, schedule: Q01DX009 (ip), vehicle: saline sonified) 86 % of control; (dose: 100.0 mg/kg/injection, schedule: Q01DX009 (ip), vehicle: saline) 118 % of control. In addition, for the setting “dose: 200.0 mg/kg/injection, schedule: Q01DX009 (ip), vehicle: saline sonified”, the T/C was 89 % of control.
Take `C[n+]1c2ccccc2cc2ccccc21`: the T/C is, setting by setting: under setting [7], 97 % of control; under setting [8], 90 % of control and 94 % of control.
With `NNC(=O)Cc1nc2ccccc2[nH]c1=O`, the T/C by setting is: under setting [9], 96 % of control; under setting [10], 96 % of control; under setting [11], 90 % of control.
Take `c1ccc(C(=C2CCC2)c2c3ccccc3cc3ccccc23)cc1`: the T/C runs as follows: under setting [1], 102 % of control; under setting [2], 91 % of control; (dose: 100.0 mg/kg/injection, schedule: Q04DX003 (ip), vehicle: Klucel (hydroxypropylcellulose) (HPC)) 105 % of control.
In the case of `O=NNc1ccc(Cl)cn1`, the T/C is, setting by setting: (dose: 1.5 mg/kg/injection, schedule: Q01DX009 (ip), vehicle: water) 104 % of control; (dose: 3.0 mg/kg/injection, schedule: Q01DX009 (ip), vehicle: water) 118 % of control; (dose: 24.0 mg/kg/injection, schedule: Q01DX009 (ip), vehicle: water) 161 % of control.
In the case of `CC(=O)c1ccc2c(c1)N(CCCN1CCN(CCO)CC1)c1ccccc1S2`, the T/C by setting is: (dose: 0.78 mg/kg/injection, schedule: Q01DX009 (ip), vehicle: saline) 98 % of control; (dose: 1.56 mg/kg/injection, schedule: Q01DX009 (ip), vehicle: saline) 103 % of control; (dose: 3.12 mg/kg/injection, schedule: Q01DX009 (ip), vehicle: saline) 97 % of control.
For `Cc1cc(C)c(C(Cl)(Cl)Cl)c(C)c1Cl`, the T/C is 93 % of control under setting [7]; 90 % of control (dose: 3.13 mg/kg/injection, schedule: Q01DX009 (ip), vehicle: saline with Tween-80); 99 % of control under setting [8]; 103 % of control (dose: 12.5 mg/kg/injection, schedule: Q01DX009 (ip), vehicle: saline with Tween-80).
Turning to `CCCCCCCCCC(=O)CCCC`, the T/C by setting is: (dose: 100.0 mg/kg/injection, schedule: Q01DX009 (ip), vehicle: other) 94 % of control; (dose: 200.0 mg/kg/injection, schedule: Q01DX009 (ip), vehicle: other) 92 % of control.
For `CNC(=O)Oc1c(C)occc1=O`, the T/C was 100 % of control under setting [3], 90 % of control under setting [4], 100 % of control under setting [5] and 97 % of control under setting [6].
As for `Cc1cc(C)c(C(=O)O)c(C)c1Br`, the T/C was 102 % of control (dose: 100.0 mg/kg/injection, schedule: Q04DX003 (ip), vehicle: saline with Tween-80); 97 % of control (dose: 200.0 mg/kg/injection, schedule: Q04DX003 (ip), vehicle: saline with Tween-80); 100 % of control (dose: 400.0 mg/kg/injection, schedule: Q04DX003 (ip), vehicle: saline with Tween-80).
For `O=C(CCN1CCCCCCC1)c1cccc([N+](=O)[O-])c1`, the T/C under setting [9] is 100 % of control and the T/C under setting [10] was 97 % of control.
Turning to `Ic1ccccc1C[N+]12CN3CN(CN(C3)C1)C2`, the T/C under setting [12] is 97 % of control; the T/C under setting [13] was 94 % of control; the T/C (dose: 200.0 mg/kg/injection, schedule: Q01DX009 (ip), vehicle: saline with Tween-80) was 105 % of control.
Take `COc1ccc(N=C=Nc2ccc(OC)cc2)cc1`: the T/C was 93 % of control (dose: 12.5 mg/kg/injection, schedule: Q01DX009 (ip), vehicle: Klucel (hydroxypropylcellulose) (HPC)) and 91 % of control under setting [14].
`NC(Cc1c[nH]c2ccc(N(CCCl)CCCl)cc12)C(=O)O` (stereo unspecified): the T/C was 159 % of control (dose: 0.25 mg/kg/injection, schedule: Q01DX009 (ip), vehicle: saline with Tween-80); 163 % of control and 185 % of control (dose: 0.5 mg/kg/injection, schedule: Q01DX009 (ip), vehicle: saline with Tween-80); 180 % of control and 226 % of control (dose: 1.0 mg/kg/injection, schedule: Q01DX009 (ip), vehicle: saline with Tween-80); 184 % of control (dose: 2.0 mg/kg/injection, schedule: Q01DX009 (ip), vehicle: saline with Tween-80).
Turning to `CCC1CN1P(=O)(N(CC)CC)N1CC1CC` (stereo unspecified), the T/C under setting [12] is 113 % of control and the T/C under setting [13] was 117 % of control.
Regarding `C=CCOCC(O)CN(C)CCCC` (stereo unspecified), the T/C was 108 % of control (dose: 50.0 mg/kg/injection, schedule: Q04DX003 (ip), vehicle: saline) and 108 % of control (dose: 100.0 mg/kg/injection, schedule: Q04DX003 (ip), vehicle: saline).
As to `CN(C)S(=O)(=O)Nc1cc(Cl)c(NS(=O)(=O)N(C)C)cc1Cl`, the T/C reads like this: under setting [10], 92 % of control; under setting [11], 100 % of control; (dose: 400.0 mg/kg/injection, schedule: Q01DX009 (ip), vehicle: Klucel (hydroxypropylcellulose) (HPC)) 89 % of control.
Turning to `O=NN(CCCl)C(=O)Nc1ccc2c3c(cccc13)-c1ccccc1-2`, the T/C (dose: 1.56 mg/kg/injection, schedule: Q01DX009 (ip), vehicle: Klucel (hydroxypropylcellulose) (HPC)) is 111 % of control; the T/C (dose: 3.12 mg/kg/injection, schedule: Q01DX009 (ip), vehicle: Klucel (hydroxypropylcellulose) (HPC)) is 124 % of control; the T/C under setting [14] is 158 % of control and 175 % of control; the T/C under setting [9] is 170 % of control; the T/C under setting [10] is 150 % of control; the T/C under setting [11] is 150 % of control.
